Experimental data from patent US20120046354A1, “ANTI-OXIDANT LOZENGES FOR THE PREVENTION AND TREATMENT OF RADIATION INDUCED MUCOSITIS, PRECANCEROUS LESIONS, ORAL CANCER AND OTHER ORAL CAVITY MUCOSAL DISORDERS” (priority 2010, published 2012).

How the values were obtained:
severe mucositis = conditions: 250 mg daily for 21 days then 75 mg daily; control group 38 patient-weeks, P=0.025; cited from earlier work
mucositis = conditions: mouthwash; cited from earlier work
leukoplakia = test system: leukoplakia; parameters: clinical response rate / response rate among patients with biopsy-proved dysplasia: dose or concentration left out as unconfirmed; conditions: cited from earlier work
oral leukoplakia = conditions: topically applied; cited from earlier work
[1] = test system: radiation-induced anal ulceration; experiment: case of a patient with AIDS and anal carcinoma with radiation-induced anal ulceration, orally administered vitamin A; format: in vivo, human; conditions: single patient
Source text: (§1) The inventor has described a dramatic case of the patient with AIDS and anal carcinoma who developed a large radiation-induced anal ulceration with marked debility. The patient required high dose opioid therapy for control of anal pain. […] The inventor has also designed, conducted and published a randomized double-blinded trial comparing vitamin A in the form of retinyl palmitate (10,000 IU by mouth for 90 days) to placebo in patients with radiation proctopathy.

radiation proctopathy = experiment: randomized double-blinded trial versus placebo in patients with radiation proctopathy; format: in vivo, human; conditions: 10,000 IU by mouth for 90 days
Source text: as §1

wound healing = conditions: following burn injury and surgeries, laboratory animals; cited from earlier work
[2] = test system: mucositis after chemotherapy; conditions: 1 mL topical oil (400 mg) twice daily, 18 patients; cited from earlier work
[3] = three months of therapy, placebo 10 percent

CC1=C(/C=C/C(C)=C/C=C/C(C)=C/C=C/C=C(C)/C=C/C=C(C)/C=C/C2=C(C)CCCC2(C)C)C(C)(C)CCC1 [beta-carotene]
severe mucositis (severe mucositis): 22 patient-weeks

[H]/N=C(\N/C(=N/[H])NCCCCCCNC(=N)NC(=N)Nc1ccc(Cl)cc1)Nc1ccc(Cl)cc1 [chlorhexidine]
effectiveness for mucositis (mucositis): limited or possibly no effectiveness

CC1=C(/C=C/C(C)=C/C=C/C(C)=C\C(=O)O)C(C)(C)CCC1 [isotretinoin, 13-cis-retinoic acid]
patients who required decreases in their dosage (leukoplakia; higher dose, 2 mg/kg per day): 47%
patients who developed conjunctivitis (leukoplakia; lower dose, 1 mg/kg per day): 29%
xeroderma (leukoplakia; lower dose, 1 mg/kg per day): common
clinical response rate (leukoplakia; [3]): 67%
response rate among patients with biopsy-proved dysplasia (leukoplakia; [3]): 54%
patients with relapse of disease (leukoplakia; within three months of discontinuation of treatment): about half

O=C(c1ccccc1)c1ccc2n1CCC2C(=O)O (centres unmarked) [ketolorac]
treatment of oral leukoplakia (oral leukoplakia): did not appear to effectively treat

CCCCCCCCCCCCCCCC(=O)OC/C=C(C)/C=C/C=C(C)/C=C/C1=C(C)CCCC1(C)C [retinyl palmitate]
persistence of wound healing and symptomatic relief ([1]; after twelve week oral course): more than six
wound healing and symptomatic relief ([1]; twelve week course, orally administered): complete wound healing and symptomatic relief
rectal symptoms of radiation proctopathy (radiation proctopathy): significantly reduced

Vitamin A
wound healing (wound healing): accelerate wound healing

vitamin E
benefit on mucosal lesions compared to soybean oil [2]: benefit
